Assay results reported in patent US10206394B2, “Herbicidal compounds” (Syngenta Participations AG, priority 2014, dated 2019).
Read-outs that look alike come from different tables or passages of the source.

Assays:
Assay in all cases: Glasshouse assay for herbicidal activity (pre- and post-emergence), percentage phytotoxicity
Type in all cases: in vivo
[1] = tested on: Alopecurus myosuroides (ALOMY); details: Alopecurus myosuroides
Method in brief: (§1)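 Herbicide was applied to potted plants sown in standard soil, one day after sowing for PRE and after about 12 days for POST. Visual percentage damage ratings followed at 15 DAA (POST) and 20 DAA (PRE).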

Avena fatua (AVEFA) = details: Avena fatua
Method in brief: as §1

[2] = tested on: Echinochloa crus-galli (ECHCG); details: Echinochloa crus-galli
Method in brief: as §1

Lolium perenne (LOLPE) = details: Lolium perenne
Method in brief: as §1

CC#Cc1cc(C)c(C2C(=O)CC(CC(=O)NCc3cccc(Cl)c3)C2=O)c(C)c1 (centres unmarked) [Compound B182]
pest or weed control at 250 g/ha ([1]; post-emergence, 360 h, POST-emergence, rate 250 g/ha, visual score 15 DAA (100%=total damage, 0%=no damage), read-out: Post-emergence herbicidal activity (percentage phytotoxicity) ALOMY POST): 100% | pest or weed control at 250 g/ha ([1]; pre-emergence, 480 h, PRE-emergence, rate 250 g/ha, visual score 20 DAA (100%=total damage, 0%=no damage), read-out: Pre-emergence herbicidal activity (percentage phytotoxicity) ALOMY PRE): 100% | pest or weed control at 250 g/ha (Avena fatua (AVEFA); post-emergence, 360 h, POST-emergence, rate 250 g/ha, visual score 15 DAA (100%=total damage, 0%=no damage), read-out: Post-emergence herbicidal activity (percentage phytotoxicity) AVEFA POST): 100% | pest or weed control at 250 g/ha (Avena fatua (AVEFA); pre-emergence, 480 h, PRE-emergence, rate 250 g/ha, visual score 20 DAA (100%=total damage, 0%=no damage), read-out: Pre-emergence herbicidal activity (percentage phytotoxicity) AVEFA PRE): 90% | pest or weed control at 250 g/ha ([2]; post-emergence, 360 h, POST-emergence, rate 250 g/ha, visual score 15 DAA (100%=total damage, 0%=no damage), read-out: Post-emergence herbicidal activity (percentage phytotoxicity) ECHCG POST): 100% | pest or weed control at 250 g/ha ([2]; pre-emergence, 480 h, PRE-emergence, rate 250 g/ha, visual score 20 DAA (100%=total damage, 0%=no damage), read-out: Pre-emergence herbicidal activity (percentage phytotoxicity) ECHCG PRE): 100% | pest or weed control at 250 g/ha (Lolium perenne (LOLPE); post-emergence, 360 h, POST-emergence, rate 250 g/ha, visual score 15 DAA (100%=total damage, 0%=no damage), read-out: Post-emergence herbicidal activity (percentage phytotoxicity) LOLPE POST): 100% | pest or weed control at 250 g/ha (Lolium perenne (LOLPE); pre-emergence, 480 h, PRE-emergence, rate 250 g/ha, visual score 20 DAA (100%=total damage, 0%=no damage), read-out: Pre-emergence herbicidal activity (percentage phytotoxicity) LOLPE PRE): 100%

COCC(C)NC(=O)CC1CC(=O)C(c2c(C)cc(Br)cc2C)C1=O (centres unmarked) [Compound B134]
pest or weed control at 250 g/ha ([1]; post-emergence, 360 h, 250 g/ha, post-emergence, 15 DAA, visual assessment (100%=total damage, 0%=no damage), read-out: Post-emergence herbicidal activity (percentage phytotoxicity) ALOMY POST): 90% | pest or weed control at 250 g/ha ([1]; pre-emergence, 480 h, 250 g/ha, pre-emergence, 20 DAA, visual assessment (100%=total damage, 0%=no damage), read-out: Pre-emergence herbicidal activity (percentage phytotoxicity) ALOMY PRE): 90% | pest or weed control at 250 g/ha (Avena fatua (AVEFA); post-emergence, 360 h, 250 g/ha, post-emergence, 15 DAA, visual assessment (100%=total damage, 0%=no damage), read-out: Post-emergence herbicidal activity (percentage phytotoxicity) AVEFA POST): 90% | pest or weed control at 250 g/ha (Avena fatua (AVEFA); pre-emergence, 480 h, 250 g/ha, pre-emergence, 20 DAA, visual assessment (100%=total damage, 0%=no damage), read-out: Pre-emergence herbicidal activity (percentage phytotoxicity) AVEFA PRE): 70% | pest or weed control at 250 g/ha ([2]; post-emergence, 360 h, 250 g/ha, post-emergence, 15 DAA, visual assessment (100%=total damage, 0%=no damage), read-out: Post-emergence herbicidal activity (percentage phytotoxicity) ECHCG POST): 80% | pest or weed control at 250 g/ha ([2]; pre-emergence, 480 h, 250 g/ha, pre-emergence, 20 DAA, visual assessment (100%=total damage, 0%=no damage), read-out: Pre-emergence herbicidal activity (percentage phytotoxicity) ECHCG PRE): 70% | pest or weed control at 250 g/ha (Lolium perenne (LOLPE); post-emergence, 360 h, 250 g/ha, post-emergence, 15 DAA, visual assessment (100%=total damage, 0%=no damage), read-out: Post-emergence herbicidal activity (percentage phytotoxicity) LOLPE POST): 80% | pest or weed control at 250 g/ha (Lolium perenne (LOLPE); pre-emergence, 480 h, 250 g/ha, pre-emergence, 20 DAA, visual assessment (100%=total damage, 0%=no damage), read-out: Pre-emergence herbicidal activity (percentage phytotoxicity) LOLPE PRE): 80%

Cc1cc(C)c(C2C(=O)CC(CC(=O)NC(C)c3ccc(F)cc3)C2=O)c(C)c1 (centres unmarked) [Compound A93]
pest or weed control at 250 g/ha ([1]; post-emergence, 360 h, Rate 250 g/ha, post-emergence, assessed visually 15 DAA, 100%=total damage, 0%=no damage, read-out: Post-emergence herbicidal activity (percentage phytotoxicity) ALOMY POST): 100% | pest or weed control at 250 g/ha ([1]; pre-emergence, 480 h, Rate 250 g/ha, pre-emergence, assessed visually 20 DAA, 100%=total damage, 0%=no damage, read-out: Pre-emergence herbicidal activity (percentage phytotoxicity) ALOMY PRE): 90% | pest or weed control at 250 g/ha (Avena fatua (AVEFA); post-emergence, 360 h, Rate 250 g/ha, post-emergence, assessed visually 15 DAA, 100%=total damage, 0%=no damage, read-out: Post-emergence herbicidal activity (percentage phytotoxicity) AVEFA POST): 40% | pest or weed control at 250 g/ha (Avena fatua (AVEFA); pre-emergence, 480 h, Rate 250 g/ha, pre-emergence, assessed visually 20 DAA, 100%=total damage, 0%=no damage, read-out: Pre-emergence herbicidal activity (percentage phytotoxicity) AVEFA PRE): 20% | pest or weed control at 250 g/ha ([2]; post-emergence, 360 h, Rate 250 g/ha, post-emergence, assessed visually 15 DAA, 100%=total damage, 0%=no damage, read-out: Post-emergence herbicidal activity (percentage phytotoxicity) ECHCG POST): 70% | pest or weed control at 250 g/ha ([2]; pre-emergence, 480 h, Rate 250 g/ha, pre-emergence, assessed visually 20 DAA, 100%=total damage, 0%=no damage, read-out: Pre-emergence herbicidal activity (percentage phytotoxicity) ECHCG PRE): 60% | pest or weed control at 250 g/ha (Lolium perenne (LOLPE); post-emergence, 360 h, Rate 250 g/ha, post-emergence, assessed visually 15 DAA, 100%=total damage, 0%=no damage, read-out: Post-emergence herbicidal activity (percentage phytotoxicity) LOLPE POST): 80% | pest or weed control at 250 g/ha (Lolium perenne (LOLPE); pre-emergence, 480 h, Rate 250 g/ha, pre-emergence, assessed visually 20 DAA, 100%=total damage, 0%=no damage, read-out: Pre-emergence herbicidal activity (percentage phytotoxicity) LOLPE PRE): 90%

Cc1ccc(CNC(=O)CC2CC(=O)C(c3c(C)cc(-c4ccc(F)cn4)cc3C)C2=O)cc1 (centres unmarked) [Compound B398]
pest or weed control at 250 g/ha ([1]; post-emergence, 360 h, Rate 250 g/ha, post-emergence, visual assessment 15 DAA, 100%=total damage, 0%=no damage, read-out: Post-emergence herbicidal activity (percentage phytotoxicity) ALOMY POST): 80% | pest or weed control at 250 g/ha ([1]; pre-emergence, 480 h, Rate 250 g/ha, pre-emergence, visual assessment 20 DAA, 100%=total damage, 0%=no damage, read-out: Pre-emergence herbicidal activity (percentage phytotoxicity) ALOMY PRE): 50% | pest or weed control at 250 g/ha (Avena fatua (AVEFA); post-emergence, 360 h, Rate 250 g/ha, post-emergence, visual assessment 15 DAA, 100%=total damage, 0%=no damage, read-out: Post-emergence herbicidal activity (percentage phytotoxicity) AVEFA POST): 80% | pest or weed control at 250 g/ha (Avena fatua (AVEFA); pre-emergence, 480 h, Rate 250 g/ha, pre-emergence, visual assessment 20 DAA, 100%=total damage, 0%=no damage, read-out: Pre-emergence herbicidal activity (percentage phytotoxicity) AVEFA PRE): 40% | pest or weed control at 250 g/ha ([2]; post-emergence, 360 h, Rate 250 g/ha, post-emergence, visual assessment 15 DAA, 100%=total damage, 0%=no damage, read-out: Post-emergence herbicidal activity (percentage phytotoxicity) ECHCG POST): 100% | pest or weed control at 250 g/ha ([2]; pre-emergence, 480 h, Rate 250 g/ha, pre-emergence, visual assessment 20 DAA, 100%=total damage, 0%=no damage, read-out: Pre-emergence herbicidal activity (percentage phytotoxicity) ECHCG PRE): 70% | pest or weed control at 250 g/ha (Lolium perenne (LOLPE); post-emergence, 360 h, Rate 250 g/ha, post-emergence, visual assessment 15 DAA, 100%=total damage, 0%=no damage, read-out: Post-emergence herbicidal activity (percentage phytotoxicity) LOLPE POST): 90% | pest or weed control at 250 g/ha (Lolium perenne (LOLPE); pre-emergence, 480 h, Rate 250 g/ha, pre-emergence, visual assessment 20 DAA, 100%=total damage, 0%=no damage, read-out: Pre-emergence herbicidal activity (percentage phytotoxicity) LOLPE PRE): 70%
